The source of these data is patent publication US5352705A, “Inhibitors of farnesyl protein transferase” (Merck & Co., Inc., priority 1992, dated 1994).

For one test, the system named is Ras farnesylation. The settings on record: cited from earlier work.
In test [1] the target is T1, Farnesyl-protein transferase (Ftase) from bovine brain (Bos taurus, UniProt P29702+P49355).
T1 construct: Farnesyl-protein transferase (Ftase) from bovine brain was chromatographed on DEAE-Sephacel; from tissue; host or cells: bovine brain, partially purified (DEAE-Sephacel, N-octyl agarose, mono Q HPLC)
Kind of test: In vitro inhibition of ras farnesyl transferase. The format is biochemical. The settings on record: Ras-CVLS 3.5 μM, 0.25 μM [3H]FPP, partially purified bovine brain enzyme; read-out: IC50 (concentration of compound which gives 50% inhibition of FTase under the described assay conditions). Here is the method:
In vitro inhibition of ras farnesyl transferase
Farnesyl-protein transferase (Ftase) from bovine brain was chromatographed on DEAE-Sephacel (Pharmacia, 0-0.8 M NaC1 gradient elution), N-octyl agarose (Sigma, 0-0.6 M Nacl gradient elution), and a mono Q HPLC column (Pharmacia, 0-0.3 M NaC1 gradient). Ras-CVLS at 3.5 μM, 0.25 μM [3H]FPP, and the indicated compounds were incubated with this partially purified enzyme preparation. The Ftase data presented below is a measurement of the ability of the test compound to inhibit RAS farnesylation in vitro.
*(IC50 is the concentration of compound which gives 50% inhibition o
FTase under the described assay conditions)

Consider `CC[C@H](C)C(=O)O[C@H]1CCC=C2C=C[C@H](C)[C@H](CC[C@@H]3C[C@@H](O)CC(=O)O3)[C@H]21` [compactin], for which the “Inhibition of Ras farnesylation in vivo” value in the test on Ras farnesylation was “Inhibition of Ras farnesylation in vivo has been demonstrated”.
`CC[C@H](C)[C@H](NC[C@@H](N)CS)C(=O)NCc1cccc(Cl)c1Cl` [N-[2(R)-Amino-3-mercaptopropyl]-L-isoleucine-2,3-dichlorobenzylamide]: the IC50 in test [1] was 25 nM.
Same read-out and setting: under `CC[C@H](C)[C@H](NC[C@@H](N)CS)C(=O)Nc1cccc(C)c1C` [N-[2(R)-amino-3-mercaptopropyl]-L-isoleucine-2,3-dimethylphenylamide] stands 35 nM.
On the same count and under the same terms, under `CC[C@H](C)[C@H](NC[C@@H](N)CS)C(=O)NCCc1cccc(Cl)c1` [N-[2(R)-Amino-3-mercaptopropyl]-L-isoleucine-3-chlorophenethylamide] stands 63 nM.
Take `CC[C@H](C)C(=O)O[C@H]1C[C@@H](C)C=C2C=C[C@H](C)[C@H](CC[C@@H]3C[C@@H](O)CC(=O)O3)[C@H]21` [lovastatin]: in the test on Ras farnesylation, the “Inhibition of Ras farnesylation in vivo” value is “Inhibition of Ras farnesylation in vivo has been demonstrated”.
As for `CC[C@H](C)[C@H](NC[C@@H](N)CS)C(=O)Nc1ccccc1` [N-[2(R)-amino-3-mercaptopropyl]-L-isoleucine-anilide], in test [1], the IC50 stood at 63 nM.
